Measurements reported in ChEMBL document CHEMBL1275354, “Anticonvulsant activity of 2,4(1H)-diarylimidazoles in mice and rats acute seizure models” (Bioorg Med Chem, 2010).
Calls of active or inactive are those of the source. The rule behind the calls is not given here.

Tests used:
[1] = system: Mus musculus; experiment: Neurotoxicity in albino CF1 mouse assessed as minimal motor impairment at 100 mg/kg, ip after 0.5 hrs by rotarod test; type: toxicity, organism-based; design: dose 100 mg/kg, route intraperitoneal; conditions: in vivo
[2] = system: Mus musculus; experiment: Anticonvulsant activity in albino CF1 mouse assessed as protection against subcutaneous metrazole-induced seizures at 30 mg/kg, ip after 0.5 hrs; type: functional, organism-based; design: dose 30 mg/kg
[3] = system: Mus musculus; experiment: Neurotoxicity in albino CF1 mouse assessed as minimal motor impairment at 100 mg/kg, ip after 4 hrs by rotarod test; type: toxicity, organism-based; design: dose 100 mg/kg, route intraperitoneal; conditions: in vivo
[4] = system: Mus musculus; experiment: Neurotoxicity in albino CF1 mouse assessed as minimal motor impairment at 300 mg/kg, ip after 4 hrs by rotarod test; type: toxicity, organism-based; design: dose 300 mg/kg, route intraperitoneal; conditions: in vivo
[5] = system: Mus musculus; experiment: Neurotoxicity in albino CF1 mouse assessed as minimal motor impairment at 30 to 300 mg/kg, ip after 0.5 hrs by rotarod test; conditions: in vivo
[6] = system: Mus musculus; experiment: Anticonvulsant activity in albino CF1 mouse assessed as protection against subcutaneous metrazole-induced seizures at 300 mg/kg, ip after 0.5 hrs; type: functional, organism-based; design: dose 300 mg/kg
[7] = system: Mus musculus; experiment: Anticonvulsant activity against maximal electroshock-induced seizures in ip dosed albino CF1 mouse assessed as minimum effective dose after 0.5 hrs; type: functional; conditions: read-out: MED
[8] = system: Mus musculus; experiment: Anticonvulsant activity in albino CF1 mouse assessed as protection against maximal electroshock-induced seizures at 30 mg/kg, ip after 0.5 hrs; type: functional, organism-based; design: dose 30 mg/kg
[9] = system: Mus musculus; experiment: Anticonvulsant activity in albino CF1 mouse assessed as protection against maximal electroshock-induced seizures at 300 mg/kg, ip after 4 hrs; type: functional, organism-based; design: dose 300 mg/kg
[10] = system: Mus musculus; experiment: Anticonvulsant activity against subcutaneous metrazole-induced seizures in ip dosed albino CF1 mouse assessed as minimum effective dose after 4 hrs; type: functional; conditions: albino CF1, 4 h, read-out: MED
[11] = system: Mus musculus; experiment: Anticonvulsant activity against maximal electroshock-induced seizures in ip dosed albino CF1 mouse assessed as minimum effective dose after 4 hrs; type: functional; conditions: read-out: MED
[12] = system: Mus musculus; experiment: Anticonvulsant activity in albino CF1 mouse assessed as protection against subcutaneous metrazole-induced seizures at 100 mg/kg, ip after 4 hrs; type: functional, organism-based; design: dose 100 mg/kg
[13] = system: Mus musculus; experiment: Neurotoxicity in ip dosed albino CF1 mouse assessed as minimum dose required to cause toxicity after 4 hrs by rotarod test; type: organism-based; conditions: in vivo
[14] = system: Mus musculus; experiment: Neurotoxicity in albino CF1 mouse assessed as minimal motor impairment at 30 to 300 mg/kg, po after 4 hrs by rotarod test; type: toxicity, organism-based; design: dose 30-300 mg/kg, route oral; conditions: in vivo
[15] = system: Mus musculus; experiment: Anticonvulsant activity in albino CF1 mouse assessed as protection against maximal electroshock-induced seizures at 30 mg/kg, ip after 4 hrs; type: functional, organism-based; design: dose 30 mg/kg
[16] = system: Mus musculus; experiment: Anticonvulsant activity in albino CF1 mouse assessed as protection against maximal electroshock-induced seizures at 100 mg/kg, ip after 0.5 hrs; type: functional, organism-based; design: dose 100 mg/kg
[17] = system: Mus musculus; experiment: Anticonvulsant activity in albino CF1 mouse assessed as protection against maximal electroshock-induced seizures at 300 mg/kg, ip after 0.5 hrs; type: functional, organism-based; design: dose 300 mg/kg
[18] = system: Mus musculus; experiment: Anticonvulsant activity in albino CF1 mouse assessed as protection against maximal electroshock-induced seizures at 100 mg/kg, ip after 4 hrs; type: functional, organism-based; design: dose 100 mg/kg
[19] = system: Mus musculus; experiment: Neurotoxicity in albino CF1 mouse assessed as minimal motor impairment at 30 mg/kg, ip after 0.5 hrs by rotarod test; type: toxicity, organism-based; design: dose 30 mg/kg, route intraperitoneal; conditions: in vivo
[20] = system: Mus musculus; experiment: Neurotoxicity in albino CF1 mouse assessed as minimal motor impairment at 30 mg/kg, ip after 4 hrs by rotarod test; type: toxicity, organism-based; design: dose 30 mg/kg, route intraperitoneal; conditions: in vivo
[21] = system: Mus musculus; experiment: Anticonvulsant activity in albino CF1 mouse assessed as protection against subcutaneous metrazole-induced seizures at 100 mg/kg, ip after 0.5 hrs; type: functional, organism-based; design: dose 100 mg/kg
[22] = system: Mus musculus; experiment: Anticonvulsant activity in albino CF1 mouse assessed as protection against subcutaneous metrazole-induced seizures at 300 mg/kg, ip after 4 hrs; type: functional, organism-based; design: dose 300 mg/kg
[23] = system: Mus musculus; experiment: Anticonvulsant activity in albino CF1 mouse assessed as protection against maximal electroshock-induced seizures at 100 mg/kg, ip after 2 hrs; type: functional, organism-based; design: dose 100 mg/kg
[24] = system: Mus musculus; experiment: Neurotoxicity in ip dosed albino CF1 mouse assessed as minimum dose required to cause toxicity after 0.5 hrs by rotarod test; type: organism-based; conditions: in vivo
[25] = system: Mus musculus; experiment: Anticonvulsant activity in albino CF1 mouse assessed as protection against subcutaneous metrazole-induced seizures at 30 mg/kg, ip after 4 hrs; type: functional, organism-based; design: dose 30 mg/kg
[26] = system: Mus musculus; experiment: Anticonvulsant activity against subcutaneous metrazole-induced seizures in ip dosed albino CF1 mouse assessed as minimum effective dose after 0.5 hrs; type: functional; conditions: albino CF1, 0.5 h, read-out: MED
[27] = system: Rattus norvegicus; experiment: Anticonvulsant activity in albino Sprague-Dawley rat assessed as protection against maximal electroshock-induced seizures at 30 mg/kg, po after 2 hrs; type: functional, organism-based; design: dose 30 mg/kg
[28] = system: Rattus norvegicus; experiment: Anticonvulsant activity in albino Sprague-Dawley rat assessed as protection against maximal electroshock-induced seizures at 30 mg/kg, po after 0.25 hrs; type: functional, organism-based; design: dose 30 mg/kg
[29] = system: Rattus norvegicus; experiment: Neurotoxicity in albino Sprague-Dawley rat assessed as minimal motor impairment at 30 mg/kg, po by rotarod test; type: toxicity, organism-based; design: dose 30 mg/kg, route oral; conditions: in vivo
[30] = system: Rattus norvegicus; experiment: Anticonvulsant activity in albino Sprague-Dawley rat assessed as protection against maximal electroshock-induced seizures at 30 mg/kg, po after 0.5 hrs; type: functional, organism-based; design: dose 30 mg/kg
[31] = system: Rattus norvegicus; experiment: Anticonvulsant activity in albino Sprague-Dawley rat assessed as protection against maximal electroshock-induced seizures at 30 mg/kg, po after 4 hrs; type: functional, organism-based; design: dose 30 mg/kg
[32] = system: Rattus norvegicus; experiment: Anticonvulsant activity in albino Sprague-Dawley rat assessed as protection against maximal electroshock-induced seizures at 30 mg/kg, po after 1 hr; type: functional, organism-based; design: dose 30 mg/kg
[33] = system: Mus musculus; experiment: Neurotoxicity in albino CF1 mouse assessed as minimal motor impairment at 300 mg/kg, ip after 0.5 hrs by rotarod test; type: toxicity, organism-based; design: dose 300 mg/kg, route intraperitoneal; conditions: in vivo

SMILES | Activity [1] | Activity [2] | Activity [3] | Activity [4] | Activity [5] | Activity [6] | minimal effective dose [7] [mg/kg] | Activity [8] | Activity [9] | minimal effective dose [10] [mg/kg] | minimal effective dose [11] [mg/kg] | Activity [12] | MED [13] [mg/kg] | Activity [14] | Activity [15] | Activity [17] | Activity [18] | Activity [19] | Activity [20] | Activity [21] | further results
FC(F)(F)c1cccc(-c2nc(-c3ccccc3)c[nH]2)c1 | Non-toxic | inactive | Non-toxic | Non-toxic | Non-toxic | inactive | > 300 | inactive | Active | > 300 | 100 | inactive | > 300 | Non-toxic | inactive | inactive | inactive | Non-toxic | Non-toxic | inactive | Activity [16]: inactive; Activity [22]: inactive; Activity [23]: inactive; MED [24]: 100 mg/kg; Activity [25]: inactive; minimal effective dose [26]: > 300 mg/kg
Clc1ccc(-c2c[nH]c(-c3ccccc3)n2)cc1 | Non-toxic | inactive | Non-toxic | Non-toxic | Non-toxic | inactive | > 30 | inactive | Active | > 300 | 100 | inactive | > 300 | Non-toxic | inactive | Active | inactive | Non-toxic | Non-toxic | inactive | Activity [27]: inactive; Activity [28]: inactive; Activity [29]: Non-toxic; Activity [16]: Active; Activity [30]: inactive; Activity [22]: inactive; Activity [31]: inactive; MED [24]: 100 mg/kg; Activity [25]: inactive; minimal effective dose [26]: > 300 mg/kg; Activity [32]: inactive
O=[N+]([O-])c1cccc(-c2c[nH]c(-c3ccccc3)n2)c1 | Non-toxic | inactive | Non-toxic | Non-toxic | Non-toxic | inactive | 100 | inactive | Active | > 300 | 100 | inactive | > 300 | Non-toxic | inactive | Active | inactive | Non-toxic | Non-toxic | inactive | Activity [27]: inactive; Activity [28]: inactive; Activity [29]: Non-toxic; Activity [33]: Non-toxic; Activity [30]: inactive; Activity [22]: inactive; Activity [31]: inactive; MED [24]: > 300 mg/kg; Activity [25]: inactive; minimal effective dose [26]: > 300 mg/kg; Activity [32]: inactive
